{"source": "paper PMC12461628", "about": "“Tolerogenic antigen-specific vaccine induces VISTA-enriched regulatory T cells and protects against arthritis in DRB1∗04:01 mice” (Molecular Therapy, 2025)", "test": "IL-17A ELISpot, lymph node cells after DTH", "type": "cell-based, mouse", "details": "ConA 1 μg/mL, 48 h, 37°C", "method": "For T cell recall assays, 1 × 10^6 lymph node cells per/well were plated in anti-IL17A (TC11-18H10.1, 5 μL, Mabtech)-coated plates (Merck Millipore, #MSIPS4W10), stimulated with denatured bCOL2 (30 μg/mL), and incubated for 48 h at 37°C. Positive controls consisted of lymph node cells stimulated with Concanavalin A (ConA; 1 μg/mL, Sigma), while negative controls comprised unstimulated cells in complete medium only. Bound IL-17A was detected with anti-IL17A (TC11-8H4, 1 μg/mL, Mabtech) followed by streptavidin-conjugated alkaline phosphatase. The spots were developed using the substrate BCIP/Nitroblue Tetrazolium (Sigma). Scanned wells (ImmunoScan) were analyzed with ImmunoSpot software (Cellular Technology)."}
{"substance": "Concanavalin A [ConA]", "values": [{"measurement": "IL-17A ELISpot signal, positive control", "result": "exceeds 600 SFC/10^6 cells"}]}
